One may read the Emax as the size of the effect at its maximum, as opposed to the concentration needed. Broadly, the EC50 is the concentration needed to bring the measured effect to its halfway point.

Type in all cases: functional, cell-based
Experiment [1] has as its target T1, Cannabinoid receptor 2 (Homo sapiens, UniProt P34972). The experiment can be described thus: Positive allosteric modulation of JWH-133-induced agonist activity at wild type CB2 receptor (unknown origin) stably expressed in HEK293T cells assessed as inhibition of forskolin-stimulated cAMP levels preincubated for 15 mins followed by forskolin addition incubated for 15 mins by HTRF assay relative to control. The settings on record: filed as positive allosteric modulator, time 30.0 min. (Cyclic AMP is a second messenger, typically raised through Gs and lowered through Gi signalling.)

In experiment [2] the target is T1, Cannabinoid receptor 2. The experiment can be described thus: Negative allosteric modulation of JWH-133-induced agonist activity at wild type CB2 receptor (unknown origin) stably expressed in HEK293T cells assessed as decrease in cAMP levels preincubated for 15 mins followed by forskolin addition incubated for 15 mins by HTRF assay relative to JWH-133. Particulars: time 30.0 min.

Experiment [3] has as its target T1, Cannabinoid receptor 2. The experiment can be described thus: Positive allosteric modulation of JWH-133-induced agonist activity at wild type CB2 receptor (unknown origin) stably expressed in HEK293T cells assessed as inhibition of forskolin-stimulated cAMP levels preincubated for 15 mins followed by forskolin addition incubated for 15 mins by HTRF assay.
The target of experiment [4] is T1, Cannabinoid receptor 2. The experiment can be described thus: Positive allosteric modulation of JWH-133-induced agonist activity at wild type CB2 receptor (unknown origin) stably expressed in HEK293T cells assessed as decrease in cAMP levels preincubated for 15 mins followed by forskolin addition incubated for 15 mins by HTRF assay relative to JWH-133. The settings on record: filed as positive allosteric modulator, time 30.0 min.

The test system of experiment [5] is Cannabinoid receptor 2 (Homo sapiens), P34972 [V113M]. The experiment can be described thus: Partial agonist activity at CBR2 V1133.32M mutant (unknown origin) expressed in HEK293T assessed as increase in picometer shifts of reflected light wavelengths by DMR assay relative to control.
Sequence of Cannabinoid receptor 2 (Homo sapiens), P34972 [V113M] (P34972 whole entry V113M): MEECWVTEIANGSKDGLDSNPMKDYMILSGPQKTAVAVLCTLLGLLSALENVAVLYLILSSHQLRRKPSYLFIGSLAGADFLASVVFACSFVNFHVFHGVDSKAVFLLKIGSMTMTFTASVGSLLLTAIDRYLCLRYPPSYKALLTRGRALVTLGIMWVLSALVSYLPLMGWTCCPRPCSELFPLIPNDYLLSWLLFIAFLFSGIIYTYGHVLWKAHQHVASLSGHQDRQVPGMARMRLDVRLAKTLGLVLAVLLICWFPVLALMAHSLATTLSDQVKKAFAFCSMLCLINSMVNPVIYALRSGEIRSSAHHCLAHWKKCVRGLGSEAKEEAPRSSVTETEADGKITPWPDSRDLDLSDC
Experiment [6] shares this test system. The experiment can be described thus: Partial agonist activity at CBR2 V1133.32M mutant (unknown origin) stably expressed in HEK293T assessed as decrease in forskolin induced cAMP level preincubated for 15 mins followed by forskolin addition incubated for 15 mins by HTRF assay relative to control. The settings on record: filed as partial agonist, time 30.0 min.

Experiment [7] addresses T1, Cannabinoid receptor 2. The experiment can be described thus: Partial agonist activity at wild type CB2 receptor (unknown origin) stably expressed in HEK293T assessed as decrease in forskolin induced cAMP level preincubated for 15 mins followed by forskolin addition incubated for 15 mins by HTRF assay relative to control. Particulars: filed as partial agonist, time 30.0 min.

For experiment [8], the target named is T1, Cannabinoid receptor 2. The experiment can be described thus: Partial agonist activity at wild type CB2 receptor (unknown origin) expressed in HEK293T assessed as increase in ERK1/2 phosphorylation incubated for 7 mins by AlphaScreenSureFire method relative to control. Particulars: filed as partial agonist.
In experiment [9] the test system is Cannabinoid receptor 2 (Homo sapiens), P34972 [V113M]. The experiment can be described thus: Partial agonist activity at CBR2 V1133.32M mutant (unknown origin) expressed in HEK293T assessed as increase in ERK1/2 phosphorylation incubated for 7 mins by AlphaScreenSureFire method relative to control. The settings on record: filed as partial agonist.
Experiment [10] concerns the target T1, Cannabinoid receptor 2. The experiment can be described thus: Partial agonist activity at wild type CB2 receptor (unknown origin) expressed in HEK293T assessed as increase in picometer shifts of reflected light wavelengths by DMR assay relative to control. The settings on record: filed as partial agonist.

T1 sequence (P34972 whole entry): as the sequence (P34972 whole entry V113M) above, with M113V counted along it

As to `C=C(C)[C@@H]1CCC(C)=C[C@H]1c1c(O)cc(CCCCCC)cc1O`, the Emax in [1] amounted to 83.5%. In [2], the %max is 38%. In experiment [3], the concentration giving a half-maximal response (EC50) is 126 nM.
In the case of `C=C(C)[C@@H]1CCC(C)=C[C@H]1c1c(O)cc(CCCC)cc1O`, in experiment [1], the maximum response (Emax) was 64.1%. Moreover, in experiment [2] (filed as negative allosteric modulator), the %max came out at 82%. Further, the EC50 in experiment [3] was 200 nM.
As to `C=C(C)[C@@H]1CCC(C)=C[C@H]1c1c(O)cc(CC)cc1O`, in experiment [1], the Emax was found to be 45.3%. Also, the %max in experiment [4] amounted to 124%. Also, the concentration giving a half-maximal response (EC50) in experiment [3] was 31.6 nM.
Regarding `C=C(C)[C@@H]1CCC(C)=C[C@H]1c1c(O)cc(CCCCC)cc1O`, the maximal response (Emax) in [1] is 67.8%; in experiment [5], 5.3%; in experiment [6], 89.1%; in experiment [7], 74%; in experiment [8], 156%; in [9] it was 186%. Also, the Emax in experiment [10] amounted to 49.1%.
Turning to `C=C(C)[C@@H]1CCC(C)=C[C@H]1c1c(O)cc(CCC)cc1O` [CANNABIDIVARIN], the maximum response (Emax) in [1] turned out to be 48%. Further, the %max in [4] was determined as 118%. The EC50 in [3] was 12.6 nM.

These data come from ChEMBL document CHEMBL5096191 (J Med Chem, 2021).
